We go through 35 molecules from paper PMC4269550, “Lead Optimization of a Pyrazole Sulfonamide Series of Trypanosoma bruceiN-Myristoyltransferase Inhibitors: Identification and Evaluation of CNS Penetrant Compounds as Potential Treatments for Stage 2 Human African Trypanosomiasis” (Journal of Medicinal Chemistry, 2014).

A short description of data set [1]: Intrinsic clearance (Cli), mouse liver microsomes. The class given is in vitro ADME. As to conditions: for Cli: mouse microsomes.
Data set [2] can be described thus: in vitro. As to conditions: human. It is filed as cell-based, human.
Data set [3] has as its system T. b. brucei, BSF427, VSG118. The data set is described as follows: Cell viability assay, trypanosome. The class given is cell-based.
The test system of data set [4] is MRC5, human lung fibroblast cells. In words: in vitro. The class given is cell-based.
For data set [5], the system named is HsNMT. The class given is biochemical, human. As to conditions: for S = IC50 HsNMT/EC50 T. brucei: selectivity.

Several values for one entry are separate records, joined by “and”; a condition that tells them apart may be missing. Identical values can stand only once. Like-named read-outs stand apart in the source and are kept apart here.

With `Cc1nn(C)c(C)c1N(C(F)F)S(=O)(=O)c1c(Cl)cc(CCCOC[C@@H]2CCCN2C)cc1Cl` [compound 49], the “Cli (mouse)” value in data set [1] (mouse liver microsomes) is on record as 8.7 mL min^–1 g^–1. As usually defined, the EC50 is the concentration that produces a half-maximal response. Turning to `Cc1nn(C)c(C)c1NS(=O)(=O)c1c(Cl)cc(Br)cc1Cl` [compound 7, 4-bromo-2,6-dichloro-N-(1,3,5-trimethyl-1H-pyrazol-4-yl)-benzenesulfonamide], the “Cli (mouse)” value in data set [1] (mouse liver microsomes) stood at 14 mL min^–1 g^–1. The half-maximal effective concentration (EC50) at 69 h in data set [2] is > 50000 nM. Take `Cc1nn(C)c(C)c1N(C(F)F)[S+](=O)([O-])c1c(Cl)cc(CCCN2CCN(C)CC2)cc1Cl` [compound 44]: the “Cli (mouse)” value in data set [1] (mouse liver microsomes) was determined as 4.2 mL min^–1 g^–1. Same read-out and setting: next, `Cc1nn(C)c(C)c1N(C(F)F)[S+](=O)([O-])c1c(Cl)cc(CCCCC2CCNCC2)cc1Cl` [compound 45]: 1.0 mL min^–1 g^–1. With `Cc1nn(C)c(C)c1NS(=O)(=O)c1c(Cl)cc(CCCC2CCN(C)CC2)cc1Cl` [compound 16], in data set [1] (mouse liver microsomes), the “Cli (mouse)” value is reported as 4.3 mL min^–1 g^–1. In data set [1], the Cli was 4.3 mL/min/g. For `Cc1nn(C)c(C)c1NS(=O)(=O)c1ccc(-c2ccnc(N3CCNC(C)C3)c2)cc1` (centres unmarked) [compound 60], the values for the EC50 in data set [3] (Trypanosoma brucei) and in data set [2] (read-out: MRC-5 EC50) were 4 nM and 790 nM, respectively. For `Cc1nn(C)c(C)c1N(C)[S+](=O)([O-])c1c(Cl)cc(CCCCCCn2ccnc2)cc1Cl` [compound 36], the “Cli (mouse)” value in data set [1] (mouse liver microsomes) worked out at 3.0 mL min^–1 g^–1. Moreover, the EC50 in data set [2] (MRC-5 EC50) worked out at 7800 nM. Regarding `Cc1nn(C)c(C)c1N(C(F)F)[S+](=O)([O-])c1c(Cl)cc(CCCN2CCCN(C)CC2)cc1Cl` [compound 65], the EC50 in data set [3] (Trypanosoma brucei) is 0.6 nM; in data set [2] (read-out: MRC-5 EC50), 410 nM. For the molecule `Cc1nn(C)c(C)c1N(C)[S+](=O)([O-])c1c(Cl)cc(-c2ccnc(N3CCNCC3)c2)cc1Cl` [compound 29], the “Cli (mouse)” value in data set [1] (mouse liver microsomes) is reported as 17 mL min^–1 g^–1.

`Cc1nn(C)c(C)c1N(C(F)F)S(=O)(=O)c1c(Cl)cc(CCCN2CCCNCC2)cc1Cl` [compound 66] returned an EC50 in data set [4] of 340 nM. `Cc1nn(C)c(C)c1NS(=O)(=O)c1ccc(CCCN2CCN(C)CC2)cc1` [compound 15]: in data set [2] (MRC-5 EC50), the EC50 at 69 h was > 50000 nM. Consider `Cc1nn(C)c(C)c1N(CC(F)F)S(=O)(=O)c1c(Cl)cc(CCCC2CCN(C)CC2)cc1Cl` [compound 41], for which, in data set [1] (mouse liver microsomes), the “Cli (mouse)” value was 2.2 mL min^–1 g^–1. Besides, the Cli in data set [1] was 2.2 mL/min/g. For `Cc1nn(C)c(C)c1N(C)S(=O)(=O)c1ccc(-c2cccc(CN3CCN(C)CC3)c2)cc1` [compound 32], the “Cli (mouse)” value in data set [1] (mouse liver microsomes) is 9.7 mL min^–1 g^–1. `CCc1nccn1CCCCCCc1cc(Cl)c([S+](=O)([O-])N(c2c(C)nn(C)c2C)C(F)F)c(Cl)c1` [compound 69]: the half-maximal effective concentration (EC50) in data set [3] (Trypanosoma brucei) is 150 nM; in data set [2] (read-out: MRC-5 EC50), 7700 nM.

As usually defined, the IC50 is the concentration needed to halve the response being measured. Low values mean inhibition by little substance, high ones a need for much substance. On to `Cc1nn(C)c(C)c1N(C(F)F)S(=O)(=O)c1c(Cl)cc(CCCOC2CC3CCC(C2)N3C)cc1Cl` (centres unmarked) [compound 72], for which, in data set [5] (mean of two or more determinations), half-maximal inhibition (IC50) required 2 nM. Moreover, the “S = IC50 HsNMT/EC50 T. brucei” value in data set [5] is 10. The EC50 was determined as 0.2 nM in data set [3] and 70 nM in data set [4]. Regarding `Cc1nn(C)c(C)c1N(C(F)F)S(=O)(=O)c1c(Cl)cc(-c2ccnc(N3CCNCC3)c2)cc1Cl` [compound 74], the concentration for a half-maximal effect (EC50) in data set [3] was 3 nM; in data set [4], 140 nM. As for `Cc1nn(C)c(C)c1NS(=O)(=O)c1ccc(-c2cccc(CN3CCN(C)CC3)c2)cc1` [compound 31], in data set [1] (mouse liver microsomes), the “Cli (mouse)” value came to 1.2 mL min^–1 g^–1. On to `Cc1nn(C)c(C)c1N(C(F)F)[S+](=O)([O-])c1c(Cl)cc(CCCC2CCNCC2)cc1Cl` [compound 43], for which the “Cli (mouse)” value in data set [1] (mouse liver microsomes) turned out to be 0.8 mL min^–1 g^–1.

`Cc1nn(C)c(C)c1NS(=O)(=O)c1ccc(-c2ccnc(N3CC(C)NC(C)C3)c2)cc1` (centres unmarked) [compound 62]: the EC50 in data set [3] (Trypanosoma brucei) was found to be 30 nM; in data set [2] (read-out: MRC-5 EC50), 2690 nM. With `Cc1nn(C)c(C)c1N(C(F)F)[S+](=O)([O-])c1c(Cl)cc(CCCOC2CCN(C)CC2)cc1Cl` [compound 47], the “Cli (mouse)” value in data set [1] (mouse liver microsomes) was determined as 3.7 mL min^–1 g^–1. For the molecule `Cc1nn(C)c(C)c1NS(=O)(=O)c1c(Cl)cc(CCCN2CCN(C)CC2)cc1Cl` [compound 14], the “Cli (mouse)” value in data set [1] (mouse liver microsomes) is reported as 1.7 mL min^–1 g^–1. In data set [1], this molecule displayed a Cli of 1.7 mL/min/g.

Take `Cc1nn(C)c(C)c1N(C)S(=O)(=O)c1c(Cl)cc(CCCCCn2ccnc2)cc1Cl` [compound 35]: the “Cli (mouse)” value in data set [1] (mouse liver microsomes) was determined as 2.0 mL min^–1 g^–1. Take `Cc1nn(C)c(C)c1N(C)[S+](=O)([O-])c1ccc(-c2ccnc(N3CCNCC3)c2)cc1` [compound 30]: the “Cli (mouse)” value in data set [1] (mouse liver microsomes) is 1.3 mL min^–1 g^–1. Regarding `Cc1nn(C)c(C)c1N(C(F)F)S(=O)(=O)c1c(Cl)cc(CCCOC[C@H]2CCCCN2C)cc1Cl` [compound 52], in data set [1] (mouse liver microsomes), the “Cli (mouse)” value is listed as 14.2 mL min^–1 g^–1. As to `Cc1nn(C)c(C)c1NS(=O)(=O)c1ccc(CCCC2CCNCC2)cc1` [compound 19], the EC50 at 69 h in data set [2] (MRC-5 EC50) was > 50000 nM.

As for `Cc1cc(-c2ccnc(N3CCNCC3)c2)ccc1S(=O)(=O)Nc1c(C)nn(C)c1C` [compound 57], the concentration for a half-maximal effect (EC50) in data set [3] stood at 4 nM; in data set [4] it was 530 nM. With `Cc1nn(C)c(C)c1NS(=O)(=O)c1ccc(-c2ccnc(N3CCNC(C(C)C)C3)c2)cc1` (centres unmarked) [compound 63], the EC50 in data set [3] (Trypanosoma brucei) was determined as 140 nM; in data set [2] (read-out: MRC-5 EC50), 8160 nM. As to `CCN(C)CCCCCCc1cc(Cl)c(S(=O)(=O)N(c2c(C)nn(C)c2C)C(F)F)c(Cl)c1` [compound 83], the “S = IC50 HsNMT/EC50 T. brucei” value in data set [5] is 3 and 5. As to `Cc1nn(C)c(C)c1NS(=O)(=O)c1c(Cl)cc(C#CCN2CCN(C)CC2)cc1Cl` [compound 13], the 50% effective concentration (EC50) at 69 h in data set [2] (MRC-5 EC50) was > 50000 nM. In the case of `Cc1nn(C)c(C)c1N(C(F)F)[S+](=O)([O-])c1c(Cl)cc(CCCCCCn2ccnc2C)cc1Cl` [compound 68], the EC50 came out at 5 nM in data set [3] (Trypanosoma brucei) and 910 nM in data set [2] (read-out: MRC-5 EC50). Take `Cc1nn(C)c(C)c1NS(=O)(=O)c1ccc(-c2ccnc(N3CCNCC3)c2)cc1F` [compound 58]: in data set [1] (Table S1, unit not given), the “Cli (mouse)” value was < 0.5. Further, the EC50 in data set [2] (read-out: MRC-5 EC50) was 530 nM.

In data set [4], `Cc1nn(C)c(C)c1NS(=O)(=O)c1ccc(-c2ccnc(N3CCNCC3)c2)cc1Cl` [compound 54] had a concentration giving a half-maximal response (EC50) of 250 nM.

Turning to `Cc1nn(C)c(C)c1N(C(F)F)S(=O)(=O)c1c(Cl)cc(CCCCCCN(C)C)cc1Cl` [compound 48], the “Cli (mouse)” value in data set [1] (mouse liver microsomes) is given as 3.7 mL min^–1 g^–1. For `Cc1nn(C)c(C)c1N(C)S(=O)(=O)c1ccc(CCCC2CCN(C)CC2)cc1` [compound 38], in data set [1] (mouse liver microsomes), the “Cli (mouse)” value was 3.7 mL min^–1 g^–1. The EC50 in data set [2] (read-out: MRC-5 EC50) came out at 42000 nM.

Consider `Cc1nn(C)c(C)c1N(C(F)F)S(=O)(=O)c1c(Cl)cc(CCCOC[C@@H]2CCCCN2C)cc1Cl` [compound 50], for which the “Cli (mouse)” value in data set [1] (mouse liver microsomes) came out at 9.8 mL min^–1 g^–1.
